Laboratory results reported in patent US9663516B2, “Bicyclic-pyrimidinedione compounds” (MyoKardia, Inc., priority 2014, dated 2017).

Legend:
[1] = target: bovine cardiac myosin (Bos taurus, UniProt Q9BE39); assay: Myosin inhibition assay (PK/LDH-coupled ATPase, bovine cardiac myofibrils); type: biochemical; conditions: calcium concentration giving 50% activation, pH 6.8, read-out: bcMF pCa_6 IC50
Method: Small molecule agents were assessed for their ability to inhibit the enzymatic activity of bovine cardiac myosin using a biochemical assay that couples the release of ADP (adenosine diphosphate) from cardiac myosin to an enzymatic coupling system consisting of pyruvate kinase and lactate dehydrogenase (PK/LDH) and monitoring the absorbance decrease of NADH (at 340 nm) as a function of time. PK converts ADP to ATP (adenosine triphosphate) by converting PEP (phosphoenolpyruvate) to pyruvate. Pyruvate is then converted to lactate by LDH by converting NADH (nicotinamide adenine dinucleotide) to NAD (oxidized nicotinamide adenine dinucleotide). […] Prior to testing small molecule agents, the bovine myofibrils were assessed for their calcium responsiveness and the calcium concentration that achieves a 50% activation of the myofibril system was chosen as the final condition for assessing the inhibitory activity of the small molecule agents. All enzymatic activity was measured in a buffered solution containing 12 mM PIPES (piperazine-N,N′-bis(2-ethanesulfonic acid), 2 mM magnesium chloride at pH 6.8 (PM12 buffer). Final assay conditions were 1 mg/mL of bovine cardiac myofibrils, 0.4 mM PK/LDH, 50 uM ATP, 0.1 mg/mL BSA (bovine serum albumin), 10 ppm antifoam, 2 mM BME, 0.5 mM NADH, 1.5 mM PEP at the desired free calcium concentration required to achieve 50% activation of the myofibrils.
A dilution series of compound was created in DMSO such that the final desired concentration of compound would be achieved in a volume of 30 μL with a fixed DMSO concentration of 3.3% (v/v). Typically 1 μL of the dilution series were added to 384 well plate to achieve an 10 point dose response. Following the addition of 14 μL of a solution containing bovine cardiac myofibrils, PK/LDH and a solution of calcium (that achieved 50% activation), the enzymatic reaction was started with the addition of 15 μL of a solution containing ATP, PEP and NADH. The reaction progress was followed in a PerkinElmer Envision plate reader at ambient temperature using clear bottom plates. The plate reader was configured to read absorbance at 340 nm in kinetics mode for 15 minutes. Data were recorded as the slope of the absorbance response to time. The slopes of the absorbance response as a function of time were normalized to slopes on the plate containing DMSO. This normalized rate was then plotted as a function of small molecule concentration and the data was fitted to a four-parameter fit using EXCEL XLfit. The IC50 is the concentration at which fifty percent of the total response is inhibited.

[2] = test system: adult rat ventricular myocytes; assay: Cardiomyocyte contractility assay (fractional shortening, IonOptix edge detection); type: cell-based; conditions: 1 Hz pacing; for inhibition at 0.1 µM / inhibition at 0.3 µM / inhibition at 1 µM: Ventricular myocyte; for inhibition at 0.1 µM: 0.1 μM compound; for inhibition at 1 µM: 1.0 μM compound
Method: Contractility of adult rat ventricular myocytes is determined by edge detection with an IonOptix contractility system. Aliquots of myocytes in Tyrode buffer (137 mM NaCl, 3.7 mM KCL, 0.5 mM MgCl2, 1.5 mM CaCl2, 4 mM HEPES, 11 mM glucose) are placed in a perfusion chamber (Series 20 RC-27NE; Warner Instruments), allowed to adhere to the coverslip, and then perfused with 37° C. Tyrode buffer. Myocytes are filed stimulated at 1 Hz and 10V. Only myocytes with clear striations, quiescent prior to pacing, with a cell length of 120-180 microns, a basal fractional shortening equal to 3-8% of the cell length, and a contraction velocity greater than 100 microns per second are used for contractility experiments. To determine the response to compounds, myocytes are first perfused for 60 seconds with Tyrodes buffer followed by 5 minutes of compound and a 140 second washout with Tyrodes buffer. Data is continuously recorded using IonOptix software. Contractility data is analyzed using Ionwizard software (IonOptix). For each cell, 10-20 contractility transients were averaged and compared under basal (no compound) and compound-treated conditions. Compound activity is measured by effects on fractional shortening (FS), where fractional shortening is the ratio of the peak length of the cell at contraction divided by the basal cell length normalized to 100% for an untreated cell.

Sequence of bovine cardiac myosin (Q9BE39 whole entry): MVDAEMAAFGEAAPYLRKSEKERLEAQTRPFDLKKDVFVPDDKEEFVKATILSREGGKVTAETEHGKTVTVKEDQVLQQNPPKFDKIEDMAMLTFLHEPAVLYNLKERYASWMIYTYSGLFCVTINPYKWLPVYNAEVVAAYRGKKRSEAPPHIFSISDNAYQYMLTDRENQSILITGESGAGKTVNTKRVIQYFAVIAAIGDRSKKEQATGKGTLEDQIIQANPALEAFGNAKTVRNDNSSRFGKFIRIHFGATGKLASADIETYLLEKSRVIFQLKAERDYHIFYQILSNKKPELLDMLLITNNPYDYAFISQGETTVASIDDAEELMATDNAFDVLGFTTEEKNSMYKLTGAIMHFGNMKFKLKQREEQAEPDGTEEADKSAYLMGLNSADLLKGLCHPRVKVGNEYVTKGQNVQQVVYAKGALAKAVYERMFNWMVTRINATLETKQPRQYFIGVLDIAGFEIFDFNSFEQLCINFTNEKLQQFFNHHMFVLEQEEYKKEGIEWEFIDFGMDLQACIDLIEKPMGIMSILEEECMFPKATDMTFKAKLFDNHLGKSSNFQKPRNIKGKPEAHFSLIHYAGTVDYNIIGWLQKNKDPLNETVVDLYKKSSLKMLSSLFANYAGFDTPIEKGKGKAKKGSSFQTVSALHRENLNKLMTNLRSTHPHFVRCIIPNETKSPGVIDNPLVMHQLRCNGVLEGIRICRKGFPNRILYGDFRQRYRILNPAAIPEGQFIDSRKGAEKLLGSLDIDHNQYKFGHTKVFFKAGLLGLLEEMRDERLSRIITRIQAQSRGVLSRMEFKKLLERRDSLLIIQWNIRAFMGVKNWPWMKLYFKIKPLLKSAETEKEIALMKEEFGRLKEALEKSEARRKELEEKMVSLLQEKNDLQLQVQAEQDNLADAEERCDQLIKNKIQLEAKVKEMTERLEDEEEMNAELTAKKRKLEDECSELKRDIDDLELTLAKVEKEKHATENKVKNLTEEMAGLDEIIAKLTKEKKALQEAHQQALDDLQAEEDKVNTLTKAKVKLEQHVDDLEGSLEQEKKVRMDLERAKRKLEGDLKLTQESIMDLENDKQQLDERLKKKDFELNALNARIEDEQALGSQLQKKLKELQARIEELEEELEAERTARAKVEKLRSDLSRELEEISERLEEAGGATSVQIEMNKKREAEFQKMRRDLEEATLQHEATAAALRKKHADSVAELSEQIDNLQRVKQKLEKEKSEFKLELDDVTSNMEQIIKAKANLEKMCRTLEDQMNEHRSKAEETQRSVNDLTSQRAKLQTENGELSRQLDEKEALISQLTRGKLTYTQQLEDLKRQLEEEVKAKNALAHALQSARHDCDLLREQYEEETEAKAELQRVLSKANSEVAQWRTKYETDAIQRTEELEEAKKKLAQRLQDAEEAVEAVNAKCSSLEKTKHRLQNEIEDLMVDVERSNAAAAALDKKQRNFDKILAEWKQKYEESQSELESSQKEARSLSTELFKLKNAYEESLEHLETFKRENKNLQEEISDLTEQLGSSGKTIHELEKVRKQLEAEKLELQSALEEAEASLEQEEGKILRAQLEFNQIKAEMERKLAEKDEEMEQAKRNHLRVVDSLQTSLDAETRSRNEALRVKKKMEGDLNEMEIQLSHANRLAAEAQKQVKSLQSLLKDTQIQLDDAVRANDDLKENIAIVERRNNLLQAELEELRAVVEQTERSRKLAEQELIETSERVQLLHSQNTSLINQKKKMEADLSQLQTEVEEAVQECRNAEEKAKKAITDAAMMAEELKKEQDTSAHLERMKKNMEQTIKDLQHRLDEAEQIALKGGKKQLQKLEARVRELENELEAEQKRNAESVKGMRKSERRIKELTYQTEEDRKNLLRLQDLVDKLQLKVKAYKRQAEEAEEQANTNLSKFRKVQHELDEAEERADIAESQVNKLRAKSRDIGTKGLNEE
Sequence of bovine cardiac myosin (P85100 whole entry partner): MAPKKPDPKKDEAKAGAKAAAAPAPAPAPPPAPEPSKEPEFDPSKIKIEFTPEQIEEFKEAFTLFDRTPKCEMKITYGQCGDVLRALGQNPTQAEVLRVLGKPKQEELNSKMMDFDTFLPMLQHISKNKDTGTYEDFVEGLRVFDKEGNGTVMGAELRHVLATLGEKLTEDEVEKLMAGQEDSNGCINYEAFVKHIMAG
Sequence of bovine cardiac myosin (Q3SZE5 whole entry partner): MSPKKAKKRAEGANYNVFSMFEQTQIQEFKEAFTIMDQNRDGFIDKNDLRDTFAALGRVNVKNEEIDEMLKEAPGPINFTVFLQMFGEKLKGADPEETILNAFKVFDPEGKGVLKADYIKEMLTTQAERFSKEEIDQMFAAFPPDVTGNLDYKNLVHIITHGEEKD

Row | Molecule | IC50 [1] | inhibition at 0.1 µM [2] | inhibition at 0.3 µM ([2]; 0.3 μM compound) | inhibition at 1 µM [2] | Activity at 0.3 μM (fractional shortening inhibition) ([2]; 0.3 μM compound)
1 | CC(C)n1c(=O)[nH]c2c(c1=O)CC[C@H](c1ccc(F)c(F)c1)N2 [Compound 4, (7R)-7-(3,4-difluorophenyl)-3-isopropyl-5,6,7,8-tetrahydropyrido[2,3-d]pyrimidine-2,4(1H,3H)-dione] | 1000 to 15000 nM | < 33% | 33 to 66% |  | 
2 | CC[C@@H](C)n1c(=O)[nH]c2c(c1=O)CC[C@H](c1ccc(F)c(F)c1)N2 [Compound 83] | < 1000 nM |  | 33 to 66% |  | 
3 | CCn1c(=O)[nH]c2c(c1=O)CC[C@H](c1ccc(F)c(F)c1)N2 [Compound 9, (R)-7-(3,4-Difluorophenyl)-3-ethyl-5,6,7,8-tetrahydropyrido[2,3-d]pyrimidine-2,4(1H,3H)-dione] | 1000 to 15000 nM |  |  | 33 to 66% | 
4 | CC(C)n1c(=O)[nH]c2c(c1=O)CC[C@H](c1ccccc1F)N2 [Compound 69, (R)-7-(2-Fluorophenyl)-3-isopropyl-5,6,7,8-tetrahydropyrido[2,3-d]pyrimidine-2,4(1H,3H)-dione] | 1000 to 15000 nM | > 66% |  |  | 
5 | O=c1[nH]c2c(c(=O)n1-c1ccccc1)CC[C@H](c1ccc(F)c(F)c1)N2 [Compound 48] | 1000 to 15000 nM |  | < 33% | < 33% | 
6 | CCn1c(=O)[nH]c2c(c1=O)CC[C@H](c1ccc(F)cc1)N2 [Compound 20] | 1000 to 15000 nM |  |  | 33 to 66% | 
7 | CCn1c(=O)[nH]c2c(c1=O)CC[C@H](C1CCC(F)(F)CC1)N2 [Compound 53] | 1000 to 15000 nM |  |  | 33 to 66% | 
8 | CC(C)n1c(=O)[nH]c2c(c1=O)CC[C@H](C1CCC(F)(F)CC1)N2 [Compound 46] | < 1000 nM |  |  | > 66% | 
9 | CC(C)n1c(=O)[nH]c2c(c1=O)CC[C@H](c1cccc(F)c1)N2 [Compound 68, (R)-7-(3-Fluorophenyl)-3-isopropyl-5,6,7,8-tetrahydropyrido[2,3-d]pyrimidine-2,4(1H,3/H)-dione] | 1000 to 15000 nM | > 66% |  |  | 
10 | O=c1[nH]c2c(c(=O)n1C1CCC1)CC[C@H](C1CCC(F)(F)CC1)N2 [Compound 31] | < 1000 nM |  | 33 to 66% |  | 
11 | O=c1[nH]c2c(c(=O)n1CC(F)(F)F)CC[C@H](c1ccc(F)c(F)c1)N2 [Compound 70] | 1000 to 15000 nM |  |  | 33 to 66% | 
12 | O=c1[nH]c2c(c(=O)n1CC(F)F)CC[C@H](c1ccc(F)c(F)c1)N2 [Compound 22] | 1000 to 15000 nM |  |  | 33 to 66% | 
13 | (R)-3-Isopropyl-7-phenyl-7,8-dihydropyrido[2,3-d]pyrimidine-2,4,5(1H,3H,6H)-trione [Compound 1] | 1000 to 15000 nM |  |  |  | ++ (++ represents fractional shorting inhibition values from 33% to 66%)
14 | CC1(n2c(=O)[nH]c3c(c2=O)CC[C@H](c2ccc(F)c(F)c2)N3)CC1 [Compound 81] | 1000 to 15000 nM |  |  | 33 to 66% | 
15 | CCn1c(=O)[nH]c2c(c1=O)CC[C@H](c1ccccc1F)N2 [Compound 14] | 1000 to 15000 nM |  | < 33% | > 66% | 
16 | CC(C)n1c(=O)[nH]c2c(c1=O)CC[C@](C)(c1ccccc1)N2 [Compound 106] | < 1000 nM | > 66% |  |  | 
17 | CC(C)n1c(=O)[nH]c2c(c1=O)CC[C@H](c1ccc(F)cc1F)N2 [Compound 6, (R)-7-(2,4-Difluorophenyl)-3-isopropyl-5,6,7,8-tetrahydropyrido[2,3-d]pyrimidine-2,4(1H,3H)-dione] | < 1000 nM |  | 33 to 66% | > 66% | 
18 | CC[C@H](C)n1c(=O)[nH]c2c(c1=O)CC[C@H](c1ccc(F)c(F)c1)N2 [Compound 18] | 1000 to 15000 nM |  | 33 to 66% |  | 
19 | CC(C)n1c(=O)[nH]c2c(c1=O)CC(F)(F)[C@H](c1ccccc1)N2 [Compound 116, (S)-6,6-Difluoro-3-isopropyl-7-phenyl-5,6,7,8-tetrahydropyrido[2,3-d]pyrimidine-2,4(1H,3H)-dione] | 1000 to 15000 nM |  | 33 to 66% | > 66% | 
20 | CC(C)n1c(=O)[nH]c2c(c1=O)CC[C@H](c1ccc(F)cc1)N2 [Compound 67] | 1000 to 15000 nM |  | 33 to 66% |  | 
21 | O=c1[nH]c2c(c(=O)n1-c1cc(F)cc(F)c1)CC[C@H](C1CCC(F)(F)CC1)N2 [Compound 2, (R)-7-(4,4-Difluorocyclohexyl)-3-(3,5-difluorophenyl)-5,6,7,8-tetrahydropyrido[2,3-d]pyrimidine-2,4(1H,3H)-dione] | < 1000 nM |  | < 33% | > 66% | 
